The test system of experiment [1] is human treated with interleukin-2. Nature of the experiment: Hypotension during interleukin-2 treatment for renal cell cancer (Examples VIII, XIV). Format: in vivo. Conditions: interleukin-2 1×10^6 units, 5 days; mithramycin 25 μg/kg intravenously as pretreatment and at 24 hour intervals. Here is the method: A human is treated for renal cell cancer with interleukin-2 (1×10^6 units) for 5 days. By the fifth day, the patient's blood pressure falls to 80/55 mm Hg and the patient encounters nausea and extreme discomfort. Three weeks later, the patient returns for a second course of interleukin-2 treatment but is pretreated (before commencing interleukin-2 infusion) with mithramycin (25 μg/kg) and is treated at 24 hour intervals thereafter with 25 μg/kg of mithramycin. The mithramycin is administered intravenously in 50 ml saline over a 3 to 6 hour interval.
A human is treated for renal cell cancer with interleukin-2 (1×10^6) for 5 days. Simultaneously with commencing interleukin-2 infusion, L-thiocitrulline (10 mg/kg/day) is administered.

Experiment [2] concerns patient with Gram negative septicemia. Nature of the experiment: Blood pressure in septicemia patient given N^G -methyl-L-arginine plus test agent (Examples X, XVI). The note with it: N^G -methyl-L-arginine 20 mg/kg bolus then 10 mg/kg/hr, plus mithramycin 25 μg/kg intravenously over 3-6 hours. Format: in vivo, human. Here is the method: A patient with Gram negative septicemia and blood pressure of 80/55 mm Hg is administered N^G -methyl-L-arginine in a bolus dose of 20 mg/kg intravenously in saline and thereafter is given a sustained infusion of N^G -methyl-L-arginine at a dosage of 10 mg/kg/hr. Mithramycin (25 μg/kg) is given intravenously in 50 ml saline over 3-6 hours starting at the time of the bolus dose of N^G -methyl-L-arginine. […] The patient is released after 2 days.
A patient with a Gram negative septicemia and blood pressure of 80/55 mm Hg is administered N^G -methyl-L-arginine in a bolus dose of 20 mg/kg intravenously in saline and thereafter is given a sustained infusion of N^G -methyl-L-arginine at a dose of 10 mg/kg/hr. N^ω -Methyl-L-citrulline (40 mg/kg) is given intravenously in 50 ml saline over 3-6 hours starting at the time of the bolus dose of N^G -methyl-L-arginine.

Experiment [3] concerns argininosuccinate synthetase. Nature of the experiment: Argininosuccinate synthetase (AS) activity of rat aortic smooth muscle cells induced with LPS/interferon-gamma in presence of test agent (Example I). Conditions: mithramycin 0.001 to 10 μg/ml with LPS 30 μg/ml plus interferon-gamma 50 ng/ml, 24 hours; FIG. 1. Format: cell-based. Here is the method:
Aortic smooth muscle cells were cultured by explanting segments of the medial layer of aortae from adult male Fischer 344 rats. Aortae were removed aseptically and freed of adventitial and endothelial cells by scraping both the lumenal and abluminal surfaces. Medial fragments (1-2 mm) were allowed to attach to dry Primaria 25 cm^2 tissue culture flasks (Falcon; Oxnard, Calif.) which were kept moist with growth medium until cells emerged. Cultures were fed twice weekly with medium 199 containing 10% fetal bovine serum, 25 mM HEPES, 2 mM L-glutamine, 40 μg/ml endothelial cell growth supplement (Biomedical Technologies; Stoughton, Mass.) and 10 μg/ml gentamycin (GIBCO; Grand Island, N.Y.). When primary cultures became confluent, they were passaged by trypsinization and the explants were discarded. Cells in passage 10-15 were seeded at 20,000/well in 96-well plates. […]
Argininosuccinate synthetase activity was assayed based on the conversion of [^14 C]aspartate to [^14 C]argininosuccinate, as described in O'Brien, W. E., Biochemistry 18, 5353-5356, 1979, with the exception that aspartate was present at a concentration of 30 μm (0.021 μCi/nmol). […] Reactions were allowed to proceed for 90 minutes at 37° C before termination and quantification of the [^14 C]argininosuccinate formed, using ion exchange chromatography on Dowex 1-X8 (200-400 mesh, Bio-Rad).

As for `COC(C(=O)C(O)C(C)O)C1Cc2cc3cc(OC4CC(OC5CC(O)C(O)C(C)O5)C(O)C(C)O4)c(C)c(O)c3c(O)c2C(=O)C1OC1CC(OC2CC(OC3CC(C)(O)C(O)C(C)O3)C(O)C(C)O2)C(O)C(C)O1` (stereo not drawn) [mithramycin], the development of hypotension entry in experiment [1] is “hypotension does not develop”. Moreover, the blood pressure entry in experiment [2] is “becomes normotensive within minutes of administration of the bolus dose of N^G -methyl-L-arginine and the normotensive state is sustained”. In addition, the argininosuccinate synthetase activity result in experiment [3] was “as a function of its concentration blocks argininosuccinate synthetase activity”.

Source of the values: patent US5545625A, “Preventing conversion of citrulline to argininosuccinate to limit pathological nitric oxide overproduction” (The Medical College of Wisconsin Research Foundation, Inc., priority 1994, dated 1996).
